We go through 20 molecules from patent publication US9339033B2, “1-aryl-5-alkyl pyrazole derivative compounds, processes of making and methods of using thereof” (MERIAL, INC., priority 2007, dated 2016).

For series [1] the following is noted: cited from earlier work.
Series [2] deals with Rhipicephalus sanguineus (Brown Dog Tick). The series can be described thus: Method A: contact activity against ticks. It counts as in vivo. The following applies: 48 h; for LC50: read-out: LD50; for pest or weed control at 25 µg/mL: read-out: control of Rhipicephalus sanguineus. The source says:
• Method of Use Examples Method A: Screening Method to Test Contact Activity of Compounds Against Ticks
A solution of the test compound was used to coat the inner wall of glass vials and to treat two filter papers. Once dried, one filter paper was placed in the cap of the vial and the other in the bottom of the vial. Each treated vial was infested with 10 adult Rhipicephalus sanguineus (Brown Dog Tick). Contact of the ticks with residues was induced by holding the vials in a controlled environment (24° C., 90-95% relative humidity) and assessment was performed at 24, 48 hours after application in comparison with untreated controls.

Series [3] has as its system western flower thrips (Frankliniella occidentalis). Kind of series: Method L: Frankliniella occidentalis test (spray application). Conditions: concentration of 500 g/ha, spray on French bean leaf-disks. In kind it is in vivo. The text has this: Method L: Frankliniella occidentalis Test (Spray Application)
French bean (Phaseolus vulgaris) leaf-disks are sprayed with a test solution containing the desired concentration of the active ingredient. Once dry, the leaf disks are infested with western flower thrips (Frankliniella occidentalis).
100% means that all the thrips have been killed; 0% means that none of the thrips have been killed.

Series [4] concerns green peach aphid (Myzus persicae). Kind of series: Method J: Myzus persicae test (spray application). In kind it is in vivo. The following applies: concentration of 500 g/ha, spray on infected Chinese cabbage leaf-disks. The source says: Method J: Myzus persicae Test (Spray Application)
100% means that all aphids have been killed; 0% means that none of the aphids have been killed.

Series [5] concerns fall armyworm larvae (Spodoptera frugiperda). The series can be described thus: Method I: Spodoptera frugiperda test (spray application). In kind it is in vivo. Conditions: concentration of 500 g/ha, spray on maize leaf sections. The text has this:
Method I: Spodoptera frugiperda Test (Spray Application)
Maize (Zea mais) leaf sections are sprayed with a preparation of the active ingredient of the desired concentration. Once dry, the leaf sections are infested with fall armyworm larvae (Spodoptera frugiperda).

Series [6] relates to am. serpentine leaf miner (Liriomyza trifolii). Kind of series: Method M: Liriomyza trifolii test (spray application). In kind it is in vivo. Conditions: concentration of 500 g/ha, spray on infested French bean leaf-disks. The text has this: Method M: Liriomyza trifolii Test (Spray Application)
French bean (Phaseolus vulgaris) leaf-disks infested with larvaes of the am. serpentine leaf miner (Liriomyza trifolii) are sprayed with a test solution containing the desired concentration of the active ingredient.
100% means that all the leaf miners have been killed; 0% means that none of the leaf miners have been killed.

Series [7] has as its system two spotted spidermite (Tetranychus urticae). Kind of series: Method K: Tetranychus urticae test; OP-resistant (spray application). Conditions: read-out: activity (mortality in %), Tetranychus urticae. The protocol:
Method K: Tetranychus urticae Test; OP-Resistant (Spray Application)
French beans (Phaseolus vulgaris) which are heavily infested with all stages of the two spotted spidermite (Tetranychus urticae), are sprayed with a preparation of the active ingredient at the desired concentration.
After the specified period of time, mortality in % is determined. 100% means that all spider mites have been killed and 0% means that none of the spider mites have been killed.

For another series, the system named is Ctenocephalides felis. The series can be described thus: Method B: contact activity against fleas. It counts as in vivo. The following applies: 72 hours assessment. The protocol:
Method B: Screening Method to Test Contact Activity of Compounds Against Fleas
A solution of the test compound was dispensed, using a pipette, onto filter paper placed into a glass vial. The filter paper was allowed to dry before infesting each vial with 10 adult Ctenocephalides felis. The treated Ctenocephalides felis were held in a controlled environment (24° C., 90-95% relative humidity) and assessment was performed at 24, 48 and 72 hours after application in comparison with untreated controls.

For `N#Cc1ccc(CC(=NNC(=O)Nc2ccc(OC(F)(F)F)cc2)c2cccc(C(F)(F)F)c2)cc1` (mixture of isomers) [Metaflumizone], the “oral LD50” value in series [1] is > 5,000 mg/kg.
With `Cc1c(SC(F)(F)F)c(C#N)nn1-c1c(Cl)cc(C(F)(F)F)cc1Cl` [Compound 1, 3-Cyano-1-(2,6-dichloro-4-trifluoromethylphenyl)-5-methyl-4-trifluoromethylthiopyrazole], in series [2], the LC50 is less than 6 µg/mL and the pest or weed control at 25 µg/mL is no less than 80%. The same molecule gave a mortality at 500 g/ha in series [3] of no less than 80%. The same molecule had a mortality at 500 g/ha in series [4] of no less than 80%.
Turning to `N#Cc1nn(-c2c(Cl)cc(C(F)(F)F)cc2Cl)c(CF)c1SC(F)(F)F` [Compound 3, 3-cyano-1-(2,6-dichloro-4-trifluoromethylphenyl)-5-fluoromethyl-4-trifluoromethylthiopyrazole], in series [2], the LC50 was less than 6 µg/mL and the pest or weed control at 25 µg/mL is no less than 80%. The same molecule had a mortality at 500 g/ha in series [3] of no less than 80%. In addition, the mortality at 500 g/ha in series [4] is no less than 80%.
Turning to `Cc1c(S(=O)(=O)C(F)(F)F)c(C#N)nn1-c1c(Cl)cc(C(F)(F)F)cc1Cl` [Compound 4, 3-cyano-1-(2,6-dichloro-4-trifluoromethylphenyl)-5-methyl-4-trifluoromethylsulfonylpyrazole], in series [2], the LC50 was less than 6 µg/mL and the pest or weed control at 25 µg/mL was no less than 80%. The same molecule showed a mortality at 500 g/ha in series [3] of no less than 80%. This molecule also had a mortality at 500 g/ha in series [4] of no less than 80%.
Consider `Cc1c([S+]([O-])C(F)(F)F)c(C#N)nn1-c1c(Cl)cc(C(F)(F)F)cc1Cl` (stereo not shown) [Compound 5, 3-cyano-1-(2,6-dichloro-4-trifluoromethylphenyl)-5-methyl-4-trifluoromethylsulfinylpyrazole], for which the mortality at 500 g/ha in series [5], in series [3] and in series [4] was no less than 80% throughout. The LC50 in series [2] is less than 6 µg/mL. Moreover, the pest or weed control at 25 µg/mL in series [2] was no less than 80%.
`Cc1c(SC(F)(F)F)c(C#N)nn1-c1c(F)cc(C(F)(F)F)cc1F` [Compound 6, 3-cyano-1-(2,6-difluoro-4-trifluoromethylphenyl)-5-methyl-4-trifluoromethylthiopyrazole]: in series [2], the LC50 was less than 6 µg/mL and the pest or weed control at 25 µg/mL was no less than 80%. In series [3], the mortality at 500 g/ha is no less than 80%. For the same molecule, in series [4], the mortality at 500 g/ha was no less than 80%.
For the molecule `Cc1c(SC(F)(F)F)c(C#N)nn1-c1c(F)cc(C(F)(F)F)cc1Cl` [Compound 7, 1-(2-Chloro-6-fluoro-4-trifluoromethylphenyl)-3-cyano-5-methyl-4-trifluoromethylthiopyrazole], in series [2], the LC50 is less than 6 µg/mL and the pest or weed control at 25 µg/mL was no less than 80%. This molecule had a mortality at 500 g/ha in series [3] of no less than 80%. This molecule registered a mortality at 500 g/ha in series [4] of no less than 80%.
`N#Cc1nn(-c2c(F)cc(C(F)(F)F)cc2Cl)c(CF)c1SC(F)(F)F` [Compound 8, 1-(2-Chloro-6-fluoro-4-trifluoromethylphenyl)-3-cyano-5-fluoromethyl-4-trifluoromethylthiopyrazole]: the LC50 in series [2] was less than 6 µg/mL. In series [2], the pest or weed control at 25 µg/mL is no less than 80%. The mortality at 500 g/ha in series [3] and in series [4] was no less than 80% each time.
Take `Cc1c([S+]([O-])C(F)(F)F)c(C#N)nn1-c1c(F)cc(C(F)(F)F)cc1Cl` (stereo not shown) [Compound 9, 1-(2-Chloro-6-fluoro-4-trifluoromethylphenyl)-3-cyano-5-methyl-4-trifluoromethylsulfinylpyrazole]: in series [2], the LC50 is less than 6 µg/mL and the pest or weed control at 25 µg/mL was no less than 80%. Besides, the mortality at 500 g/ha in series [3] was no less than 80%. The mortality at 500 g/ha in series [4] is no less than 80%.
On to `N#Cc1nn(-c2c(Cl)cc(C(F)(F)F)cc2Cl)c(CF)c1[S+]([O-])C(F)(F)F` (stereo not shown) [Compound 10, 3-Cyano-1-(2,6-dichloro-4-trifluoromethylphenyl)-5-fluoromethyl-4-trifluoromethylsulfinylpyrazole], for which the mortality at 500 g/ha in series [6], in series [5], in series [3] and in series [4] was no less than 80% in each case. Moreover, the LC50 in series [2] is less than 6 µg/mL. Further, the pest or weed control at 25 µg/mL in series [2] was no less than 80%.
As for `N#Cc1nn(-c2c(F)cc(C(F)(F)F)cc2Cl)c(CF)c1[S+]([O-])C(F)(F)F` (stereo not shown) [Compound 11, 1-(2-Chloro-6-fluoro-4-trifluoromethylphenyl)-3-cyano-5-fluoromethyl-4-trifluoromethylsulfinylpyrazole], in series [2], the LC50 was less than 6 µg/mL and the pest or weed control at 25 µg/mL is no less than 80%. The mortality at 500 g/ha in series [4] is no less than 80%.
For the molecule `Cc1c([S+]([O-])C(F)(F)F)c(C#N)nn1-c1c(F)cc(C(F)(F)F)cc1F` (stereo not shown) [Compound 12, 3-Cyano-1-(2,6-difluoro-4-trifluoromethylphenyl)-5-methyl-4-trifluoromethylsulfinylpyrazole], in series [2], the LC50 is less than 6 µg/mL and the pest or weed control at 25 µg/mL was no less than 80%. Moreover, the mortality at 500 g/ha in series [3] was no less than 80%. Also, the mortality at 500 g/ha in series [4] was no less than 80%.
For the molecule `Cc1c([S+]([O-])C(F)(F)F)c(C#N)nn1-c1ccc(C(F)(F)F)cc1F` (stereo not shown) [Compound 14, 3-Cyano-1-(2-fluoro-4-trifluoromethylphenyl)-5-methyl-4-trifluoromethylsulfinylpyrazole], the mortality at 100 g/ha in series [7] is no less than 80%. Moreover, in series [2], the LC50 was less than 6 µg/mL and the pest or weed control at 25 µg/mL is no less than 80%. The mortality at 500 g/ha in series [4] was no less than 80%.
For `N#Cc1nn(-c2c(Cl)cc(OC(F)(F)F)cc2Cl)c(CF)c1SC(F)(F)F` [Compound 16, 3-Cyano-1-(2,6-dichloro-4-trifluoromethoxyphenyl)-5-fluoromethyl-4-trifluoromethylthiopyrazole], in series [2], the LC50 was less than 6 µg/mL and the pest or weed control at 25 µg/mL is no less than 80%. Also, in series [3], the mortality at 500 g/ha was no less than 80%. In series [4], this molecule registered a mortality at 500 g/ha of no less than 80%.
Take `Cc1c(SC(F)(F)F)c(C#N)nn1-c1c(Cl)cc(OC(F)(F)F)cc1Cl` [Compound 17, 3-Cyano-1-(2,6-dichloro-4-trifluoromethoxyphenyl)-5-methyl-4-trifluoromethylthiopyrazole]: in series [2], the LC50 was less than 6 µg/mL and the pest or weed control at 25 µg/mL was no less than 80%. For the same molecule, the mortality at 500 g/ha in series [4] is no less than 80%.
On to `N#Cc1nn(-c2c(Cl)cc(OC(F)(F)F)cc2Cl)c(CF)c1[S+]([O-])C(F)(F)F` (stereo not shown) [Compound 18, 3-Cyano-1-(2,6-dichloro-4-trifluoromethoxyphenyl)-5-fluoromethyl-4-trifluoromethylsulfinylpyrazole], for which, in series [2], the LC50 is less than 6 µg/mL and the pest or weed control at 25 µg/mL was no less than 80%. In series [4], the mortality at 500 g/ha was no less than 80%.
Regarding `Cc1c([S+]([O-])C(F)(F)F)c(C#N)nn1-c1c(Cl)cc(OC(F)(F)F)cc1Cl` (stereo not shown) [Compound 19, 3-Cyano-1-(2,6-dichloro-4-trifluoromethoxyphenyl)-5-methyl-4-trifluoromethylsulfinylpyrazole], in series [2], the LC50 was less than 6 µg/mL and the pest or weed control at 25 µg/mL was no less than 80%. In series [3], the mortality at 500 g/ha is no less than 80%. For the same molecule, the mortality at 500 g/ha in series [4] is no less than 80%.
Regarding `Cc1cc(C(F)(F)F)cc(Cl)c1-n1nc(C#N)c(SC(F)(F)F)c1C` [Compound 43, 1-(2-chloro-6-methyl-4-trifluoromethylphenyl)-3-cyano-5-methyl-4-trifluoromethylthiopyrazole], in series [2], the LC50 was less than 6 µg/mL and the pest or weed control at 25 µg/mL was no less than 80%. Moreover, in series [4], the mortality at 500 g/ha was no less than 80%.
Take `Cc1cc(C(F)(F)F)cc(Cl)c1-n1nc(C#N)c([S+]([O-])C(F)(F)F)c1C` (stereo not shown) [Compound 44, 1-(2-Chloro-6-methyl-4-trifluoromethylphenyl)-3-cyano-5-methyl-4-trifluoromethylsulfinylpyrazole]: in series [2], the LC50 is less than 6 µg/mL and the pest or weed control at 25 µg/mL is no less than 80%. The mortality at 500 g/ha in series [3] was no less than 80%. The mortality at 500 g/ha in series [4] is no less than 80%.
Turning to `N#Cc1nn(-c2c(Cl)cc(C(F)(F)F)cc2Cl)c(N)c1[S+]([O-])C(F)(F)F` (stereo not shown) [fipronil], the LD50 entry in the series on Ctenocephalides felis is “around 20 ppm”.
